Reference: the NIST ThermoML archive (doi:10.1021/acs.jced.6b00121)

Assay: xn = mol fraction of the nth substance listed
Conditions: 100 kPa, Liquid; for viscosity: Falling or rolling sphere viscometry; for mass density: Vibrating tube method

CCCCCCCCCCC [undecane] + CCCO
Conditions	mass density [kg/m3]	viscosity [mPa·s]
283.15 K, x1 = 0.1003	794.54	2.378
283.15 K, x1 = 0.2009	782.93	2.098
283.15 K, x1 = 0.3004	774.29	1.867
283.15 K, x1 = 0.3997	767.69	1.722
283.15 K, x1 = 0.4998	762.46	1.585
283.15 K, x1 = 0.6005	758.08	1.482
283.15 K, x1 = 0.6974	754.68	1.412
283.15 K, x1 = 0.8	751.72	1.371
283.15 K, x1 = 0.8963	749.45	1.356
283.15 K, x1 = 1	747.78	1.371
288.15 K, x1 = 0.1003	790.63	2.104
288.15 K, x1 = 0.2009	779.03	1.861
288.15 K, x1 = 0.3004	770.41	1.69
288.15 K, x1 = 0.3997	763.82	1.539
288.15 K, x1 = 0.4998	758.6	1.426
288.15 K, x1 = 0.6005	754.26	1.338
288.15 K, x1 = 0.6974	750.86	1.28
288.15 K, x1 = 0.8	747.96	1.246
288.15 K, x1 = 0.8963	745.71	1.235
288.15 K, x1 = 1	744.06	1.249
293.15 K, x1 = 0.1003	786.69	1.865
293.15 K, x1 = 0.2009	775.1	1.656
293.15 K, x1 = 0.3004	766.5	1.515
293.15 K, x1 = 0.3997	759.92	1.382
293.15 K, x1 = 0.4998	754.73	1.286
293.15 K, x1 = 0.6005	750.41	1.214
293.15 K, x1 = 0.6974	747.04	1.165
293.15 K, x1 = 0.8	744.17	1.138
293.15 K, x1 = 0.8963	741.96	1.13
293.15 K, x1 = 1	740.35	1.145
298.15 K, x1 = 0.1003	782.72	1.655
298.15 K, x1 = 0.2009	771.14	1.481
298.15 K, x1 = 0.3004	762.56	1.357
298.15 K, x1 = 0.3997	756	1.246
298.15 K, x1 = 0.4998	750.83	1.166
298.15 K, x1 = 0.6005	746.54	1.106
298.15 K, x1 = 0.6974	743.2	1.065
298.15 K, x1 = 0.8	740.37	1.044
298.15 K, x1 = 0.8963	738.2	1.038
298.15 K, x1 = 1	736.64	1.062
303.15 K, x1 = 0.1003	778.73	1.487
303.15 K, x1 = 0.2009	767.15	1.332
303.15 K, x1 = 0.3004	758.59	1.223
303.15 K, x1 = 0.3997	752.04	1.129
303.15 K, x1 = 0.4998	746.9	1.061
303.15 K, x1 = 0.6005	742.64	1.012
303.15 K, x1 = 0.6974	739.34	0.978
303.15 K, x1 = 0.8	736.55	0.961
303.15 K, x1 = 0.8963	734.41	0.957
303.15 K, x1 = 1	732.93	0.982
308.15 K, x1 = 0.1003	774.69	1.333
308.15 K, x1 = 0.2009	763.12	1.196
308.15 K, x1 = 0.3004	754.57	1.106
308.15 K, x1 = 0.3997	748.05	1.025
308.15 K, x1 = 0.4998	742.93	0.968
308.15 K, x1 = 0.6005	738.71	0.929
308.15 K, x1 = 0.6974	735.45	0.901
308.15 K, x1 = 0.8	732.7	0.886
308.15 K, x1 = 0.8963	730.61	0.885
308.15 K, x1 = 1	729.23	0.91
313.15 K, x1 = 0.1003	770.6	1.198
313.15 K, x1 = 0.2009	759.04	1.08
313.15 K, x1 = 0.3004	750.52	1.004
313.15 K, x1 = 0.3997	744.02	0.935
313.15 K, x1 = 0.4998	738.93	0.888
313.15 K, x1 = 0.6005	734.75	0.855
313.15 K, x1 = 0.6974	731.52	0.833
313.15 K, x1 = 0.8	728.83	0.821
313.15 K, x1 = 0.8963	726.79	0.822
313.15 K, x1 = 1	725.53	0.847
318.15 K, x1 = 0.1003	766.466	1.079
318.15 K, x1 = 0.2009	754.911	0.979
318.15 K, x1 = 0.3004	746.411	0.913
318.15 K, x1 = 0.3997	739.944	0.856
318.15 K, x1 = 0.4998	734.891	0.816
318.15 K, x1 = 0.6005	730.749	0.789
318.15 K, x1 = 0.6974	727.572	0.772
318.15 K, x1 = 0.8	724.934	0.763
318.15 K, x1 = 0.8963	722.953	0.765
318.15 K, x1 = 1	721.818	0.79
323.15 K, x1 = 0.1003	762.28	0.976
323.15 K, x1 = 0.2009	750.73	0.889
323.15 K, x1 = 0.3004	742.26	0.828
323.15 K, x1 = 0.3997	735.82	0.786
323.15 K, x1 = 0.4998	730.81	0.754
323.15 K, x1 = 0.6005	726.72	0.732
323.15 K, x1 = 0.6974	723.59	0.717
323.15 K, x1 = 0.8	721.01	0.712
323.15 K, x1 = 0.8963	719.09	0.715
323.15 K, x1 = 1	718.11	0.74
328.15 K, x1 = 0.1003	758.02	0.885
328.15 K, x1 = 0.2009	746.49	0.811
328.15 K, x1 = 0.3004	738.04	0.76
328.15 K, x1 = 0.3997	731.64	0.723
328.15 K, x1 = 0.4998	726.68	0.698
328.15 K, x1 = 0.6005	722.64	0.681
328.15 K, x1 = 0.6974	719.57	0.669
328.15 K, x1 = 0.8	717.05	0.665
328.15 K, x1 = 0.8963	715.21	0.669
328.15 K, x1 = 1	714.39	0.692
333.15 K, x1 = 0.1003	753.7	0.805
333.15 K, x1 = 0.2009	742.18	0.741
333.15 K, x1 = 0.3004	733.76	0.698
333.15 K, x1 = 0.3997	727.41	0.668
333.15 K, x1 = 0.4998	722.5	0.648
333.15 K, x1 = 0.6005	718.52	0.634
333.15 K, x1 = 0.6974	715.51	0.625
333.15 K, x1 = 0.8	713.06	0.623
333.15 K, x1 = 0.8963	711.3	0.628
333.15 K, x1 = 1	710.68	0.651
338.15 K, x1 = 0.1003	749.3	0.734
338.15 K, x1 = 0.2009	737.8	0.68
338.15 K, x1 = 0.3004	729.43	0.645
338.15 K, x1 = 0.3997	723.12	0.619
338.15 K, x1 = 0.4998	718.27	0.604
338.15 K, x1 = 0.6005	714.36	0.593
338.15 K, x1 = 0.6974	711.41	0.586
338.15 K, x1 = 0.8	709.04	0.586
338.15 K, x1 = 0.8963	707.37	0.592
338.15 K, x1 = 1	706.95	0.615
343.15 K, x1 = 0.1003	744.8	0.672
343.15 K, x1 = 0.2009	733.33	0.626
343.15 K, x1 = 0.3004	725.01	0.596
343.15 K, x1 = 0.3997	718.77	0.576
343.15 K, x1 = 0.4998	713.98	0.563
343.15 K, x1 = 0.6005	710.14	0.555
343.15 K, x1 = 0.6974	707.27	0.551
343.15 K, x1 = 0.8	704.99	0.552
343.15 K, x1 = 0.8963	703.43	0.558
343.15 K, x1 = 1	703.22	0.58
348.15 K, x1 = 0.1003	740.24	0.617
348.15 K, x1 = 0.2009	728.8	0.578
348.15 K, x1 = 0.3004	720.53	0.553
348.15 K, x1 = 0.3997	714.34	0.537
348.15 K, x1 = 0.4998	709.64	0.527
348.15 K, x1 = 0.6005	705.88	0.522
348.15 K, x1 = 0.6974	703.09	0.519
348.15 K, x1 = 0.8	700.9	0.521
348.15 K, x1 = 0.8963	699.45	0.528
348.15 K, x1 = 1	699.47	0.549
353.15 K, x1 = 0.1003	735.57	0.568
353.15 K, x1 = 0.2009	724.18	0.535
353.15 K, x1 = 0.3004	715.97	0.515
353.15 K, x1 = 0.3997	709.86	0.502
353.15 K, x1 = 0.4998	705.23	0.495
353.15 K, x1 = 0.6005	701.57	0.492
353.15 K, x1 = 0.6974	698.86	0.49
353.15 K, x1 = 0.8	696.77	0.492
353.15 K, x1 = 0.8963	695.46	0.501
353.15 K, x1 = 1	695.72	0.522
358.15 K, x1 = 0.1003	730.81	0.525
358.15 K, x1 = 0.2009	719.45	0.497
358.15 K, x1 = 0.3004	711.32	0.481
358.15 K, x1 = 0.3997	705.29	0.471
358.15 K, x1 = 0.4998	700.75	0.466
358.15 K, x1 = 0.6005	697.19	0.465
358.15 K, x1 = 0.6974	694.58	0.463
358.15 K, x1 = 0.8	692.62	0.467
358.15 K, x1 = 0.8963	691.44	0.476
358.15 K, x1 = 1	691.96	0.497
363.15 K, x1 = 0.1003	725.93	0.4864
363.15 K, x1 = 0.2009	714.64	0.4635
363.15 K, x1 = 0.3004	706.59	0.4506
363.15 K, x1 = 0.3997	700.67	0.443
363.15 K, x1 = 0.4998	696.22	0.4401
363.15 K, x1 = 0.6005	692.77	0.4396
363.15 K, x1 = 0.6974	690.27	0.4398
363.15 K, x1 = 0.8	688.42	0.4438
363.15 K, x1 = 0.8963	687.41	0.4531
363.15 K, x1 = 1	688.18	0.475
